Source: patent publication US20260258039A1, “AROMATIC COMPOUND, METHOD FOR PREPARING SAME, AND USE THEREOF IN PREPARATION OF ESTROGEN RECEPTOR DEGRADER” (Hinova Pharmaceuticals Inc., priority 2022, published 2026)
Read-outs that look alike come from different tables or passages of the source.

Target: T1, ER (Homo sapiens, UniProt P03372)
T1 construct: T47D breast cancer cells were subcultured in cell culture medium; endogenous in cells; host or cells: T47D breast cancer cells
T1 sequence (P03372 1-595): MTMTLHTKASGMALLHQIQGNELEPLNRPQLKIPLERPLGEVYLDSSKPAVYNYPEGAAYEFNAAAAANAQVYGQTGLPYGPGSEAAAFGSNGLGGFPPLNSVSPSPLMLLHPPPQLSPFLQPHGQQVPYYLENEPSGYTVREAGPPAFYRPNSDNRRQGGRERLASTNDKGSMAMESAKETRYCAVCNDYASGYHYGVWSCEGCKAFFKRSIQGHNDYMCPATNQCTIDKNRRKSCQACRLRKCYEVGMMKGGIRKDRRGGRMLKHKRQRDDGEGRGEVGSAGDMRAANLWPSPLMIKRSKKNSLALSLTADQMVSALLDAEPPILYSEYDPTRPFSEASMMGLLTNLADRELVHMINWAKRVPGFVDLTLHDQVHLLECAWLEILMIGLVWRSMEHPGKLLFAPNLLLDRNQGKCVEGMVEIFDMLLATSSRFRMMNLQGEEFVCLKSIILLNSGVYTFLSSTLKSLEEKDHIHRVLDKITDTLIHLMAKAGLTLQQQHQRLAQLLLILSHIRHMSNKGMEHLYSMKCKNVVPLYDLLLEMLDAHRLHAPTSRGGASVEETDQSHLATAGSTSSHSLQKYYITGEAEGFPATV
Assay: Degradation activities on ER (ELISA) in T47D breast cancer cells
Assay type: cell-based
Settings: T47D cells, 24 h, ELISA; for DC50: concentration required to degrade 50% of the target protein; for Dmax: maximum percentage of target protein degraded
Description: T47D breast cancer cells were subcultured in cell culture medium, and then the cells in good growth condition were seeded into 96-well plates at 80 µL/well, with 2.5×10^4 cells per well. The cells were incubated in a 37° C., 5% CO2 incubator for 3 days. The drug was prepared into a 10 mM stock solution with dimethyl sulfoxide (DMSO). Prior to use, the stock solution was diluted with cell culture medium to obtain six final concentrations (100 nM, 25 nM, 6.25 nM, 1.56 nM, 0.39 nM, and […]), and gently mixed. Additionally, negative control wells (only containing culture medium) and positive control wells (only containing cells and DMSO) were included. After the cells were incubated in the incubator for 24 h, the cells were rinsed once with ice-cold 1×PBS. […] The plate was sealed with plastic film, and incubated in a 37° C. incubator for 2 h. The film was removed. 200 μL of 1× washing buffer was added to each well, and then the plate was shaken for 5 min. The washing buffer was discarded, and the plate was pat-dried. The plate was washed four times. 100 μL of freshly prepared detection antibody (green) was added to each well of the ELISA plate. The plate was sealed with plastic film, and then incubated in a 37° C. incubator for 1 h. The film was removed, and the detection antibody was discarded. The plate was pat-dried. 200 μL of 1× washing buffer was added to each well, and then the plate was shaken for 5 min. The washing buffer was discarded, and the plate was pat-dried. The plate was washed four times. 100 μL of freshly prepared HRP-labeled secondary antibody (red) was added to each well of the ELISA plate. The plate was sealed with plastic film, and incubated in a 37° C. incubator for 30 min. The film was removed, the secondary antibody was discarded, and the plate was pat-dried, followed by adding 200 μL of 1× washing buffer to each well. The plate was shaken for 5 min, and the washing buffer was discarded before pat-drying the plate. The plate was washed four times. 100 μl of TMB substrate was added to each well of the ELISA plate, followed by incubating in a 37° C. incubator for 5 min. 100 μL of STOP solution was added to each well of the ELISA plate, and the plate was gently shaken for a few seconds. The bottom of each well was wiped with lint-free cloth. Within 30 min after adding the STOP solution, the absorbance was read at 450 nm. […] The data were analyzed using the Dose-response equation in GraphPad Prism8 software to obtain the DC50 and Dmax values, and both of them are important indicators for measuring the degradation activities of compounds on target proteins. […] The Dmax value represents the maximum percentage of target protein that can be degraded by the compound.

| SMILES | DC50 | Dmax (read-out: Dmax) | Dmax |
| --- | --- | --- | --- |
| O=C1CCC(N2Cc3cc(N4CC5(CCN(CC6CCN(c7c(F)cc([C@@H]8c9ccc(OCc%10ccccc%10)cc9OC[C@@H]8c8ccccc8F)cc7F)CC6)CC5)C4)ccc3C2=O)C(=O)N1 (stereo partly drawn) [Example 51, 3-(5-(7-((1-(4-(cis-7-(benzyloxy)-3-(2-fluorophenyl)chroman-4-yl)-2,6-difluorophenyl)piperidin-4-yl)methyl)-2,7-diazaspiro[3.5]nonane-2-yl)-1-oxoisoinodolin-2-yl)piperidin-2,6-one] | > 100 nM | < 50% | – |
| O=C1CCC(N2Cc3cc(N4CCC5(CCN(C6CCN(c7ccc([C@@H]8c9ccc(O)cc9CC[C@@H]8c8ccccc8)cc7)CC6)C5)C4)ccc3C2=O)C(=O)N1 (stereo partly drawn) [Example 66, 3-(5-(7-(1-(4-(6-hydroxyl-2-phenyl-1,2,3,4-tetrahydronaphthalen-1-yl)phenyl)piperidin-4-yl)-2,7-diazaspiro[4.4]nonane-2-yl)-1-oxoisoinodolin-2-yl)piperidin-2,6-dione] | > 100 nM | < 50% | – |
| O=C1CCC(N2Cc3cc(N4CC5(CCN(CC6CCN(c7ccc([C@@H]8c9ccc(O)cc9OC[C@@H]8c8ccc(F)cc8F)cc7)CC6)CC5)C4)ccc3C2=O)C(=O)N1 (stereo partly drawn) [Example 46, 3-(5-(7-((1-(4-(cis-3-(2,4-difluorophenyl)-7-hydroxychroman-4-yl)phenyl)piperidin-4-yl)methyl)-2,7-diazaspiro[3.5]nonane-2-yl)-1-oxoisoinodolin-2-yl)piperidin-2,6-dione] | 10 to 50 nM | 50 to 75% | – |
| O=C1CCC(N2Cc3cc(N4CC5(CCN(CC6CCN(c7ccc([C@@H]8c9ccc(O)cc9OC[C@@H]8c8cc(F)ccc8F)cc7)CC6)CC5)C4)ccc3C2=O)C(=O)N1 (stereo partly drawn) [Example 47, 3-(5-(7-((1-(4-(cis-3-(2,5-difluorophenyl)-7-hydroxychroman-4-yl)phenyl)piperidin-4-yl)methyl)-2,7-diazaspiro[3.5]nonane-2-yl)-1-oxoisoinodolin-2-yl)piperidin-2,6-dione] | 10 to 50 nM | 50 to 75% | – |
| O=C1CCC(N2Cc3cc(N4CC5(CCN(CC6CCN(c7c(F)cc([C@@H]8c9ccc(O)cc9OC[C@@H]8c8cccc(F)c8F)cc7F)CC6)CC5)C4)ccc3C2=O)C(=O)N1 (stereo partly drawn) [Example 48, 3-(5-(7-((1-(2,6-difluoro-4-(cis-3-(2,3-difluorophenyl)-7-hydroxychroman-4-yl)phenyl)piperidin-4-yl)methyl)-2,7-diazaspiro[3.5]nonane-2-yl)-1-oxoisoinodolin-2-yl)piperidin-2,6-dione] | < 10 nM | 50 to 75% | – |
| O=C1CCC(N2Cc3cc(N4CC5(CCN(CC6CCN(c7c(F)cc([C@H]8c9ccc(O)cc9OC[C@H]8c8ccccc8F)cc7F)CC6)CC5)C4)ccc3C2=O)C(=O)N1 (stereo partly drawn) [Example 38, 3-(5-(7-((1-(2,6-difluoro-4-((3R,4S)-3-(2-fluorophenyl)-7-hydroxychroman-4-yl)phenyl)piperidin-4-yl)methyl)-2,7-diazaspiro[3.5]nonane-2-yl)-1-oxoisoindol-2-yl)piperidin-2,6-dione] | > 100 nM | < 50% | – |
| O=C1CCC(N2Cc3cc(N4CC5(CCN(CC6CCN(c7c(F)cc(C8=C(c9c(F)cccc9F)COc9cc(OCc%10ccccc%10)ccc98)cc7F)CC6)CC5)C4)ccc3C2=O)C(=O)N1 (stereo not drawn) [Example 43] | > 100 nM | < 50% | – |
| O=C1CCC(N2Cc3cc(N4CCC(N5CC6(CCN(c7ccc([C@@H]8c9ccc(O)cc9CC[C@@H]8c8ccccc8F)cc7)CC6)C5)CC4)ccc3C2=O)C(=O)N1 (stereo partly drawn) [Example 19, 3-(5-(4-(7-(4-(cis-2-(2-fluorophenyl)-6-hydroxyl-1,2,3,4-tetrahydronaphthalen-1-yl)phenyl)-2,7-diazaspiro[3.5]nonane-2-yl)piperidin-1-yl)-1-oxoisoinodolin-2-yl)piperidin-2,6-dione] | < 10 nM | > 75% | – |

Other lines, results leading:

| DC50 | Dmax (read-out: Dmax) | Dmax | SMILES |
| --- | --- | --- | --- |
| – | < 50% | – | O=C1CCC(N2Cc3cc(N4CC5(CCN(CC6CCN(c7ccc([C@H]8c9ccc(O)cc9OC[C@H]8c8c(F)cccc8F)cc7)CC6)CC5)C4)ccc3C2=O)C(=O)N1 (stereo partly drawn) [Example 72, 3-(5-(7-((1-(4-((3R,4S)-3-(2,6-difluorophenyl)-7-hydroxychroman-4-yl)phenyl)piperidin-4-yl)methyl)-2,7-diazaspiro[3.5]nonane-2-yl)-1-oxoisoindol-2-yl)piperidin-2,6-dione] |
| – | – | B (B: 75-50%) | O=C1CCC(N2Cc3cc(N4CC5(CCN(CC6CCN(c7ccc([C@@H]8c9ccc(O)cc9OC[C@@H]8c8c(F)cccc8F)cc7)CC6)CC5)C4)ccc3C2=O)C(=O)N1 (stereo partly drawn) [Example 77, 3-(5-(7-((1-(4-((3S,4R)-3-(2,6-difluorophenyl)-7-hydroxychroman-4-yl)phenyl)piperidin-4-yl)methyl)-2,7-diazaspiro[3.5]nonane-2-yl)-1-oxoisoinodolin-2-yl)piperidin-2,6-dione] |
| > 100 nM | < 50% | – | O=C1CC[C@@H](N2Cc3cc(N4CC5(CCN(CC6CCN(c7ccc([C@@H]8c9ccc(O)cc9OC[C@@H]8c8ccccc8F)cc7)CC6)CC5)C4)ccc3C2=O)C(=O)N1 [Example 90, (R)-3-(5-(7-((1-(4-((3S, 4R)-3-(2-fluorophenyl)-7-hydroxychroman-4-yl)phenyl)piperidin-4-yl)methyl)-2,7-diazaspiro[3.5]nonane-2-yl)-1-oxoisoinodolin-2-yl)piperidin-2,6-dione] |
| < 10 nM | > 75% | – | O=C1CC[C@H](N2Cc3cc(N4CC5(CCN(CC6CCN(c7ccc([C@@H]8c9ccc(O)cc9OC[C@@H]8c8ccccc8F)cc7)CC6)CC5)C4)ccc3C2=O)C(=O)N1 [Example 91, (S)-3-(5-(7-((1-(4-((3S, 4R)-3-(2-fluorophenyl)-7-hydroxychroman-4-yl)phenyl)piperidin-4-yl)methyl)-2,7-diazaspiro[3.5]nonane-2-yl)-1-oxoisoinodolin-2-yl)piperidin-2,6-dione] |
| < 10 nM | > 75% | – | O=C1CCC(N2Cc3cc(N4CCC(N5CC6(CCN(c7ccc([C@@H]8c9ccc(O)cc9OC[C@@H]8c8ccccc8F)cc7F)CC6)C5)CC4)ccc3C2=O)C(=O)N1 (stereo partly drawn) [Example 68, 3-(5-(4-(7-(2-fluoro-4-((3,4-cis)-3-(2-fluorophenyl)-7-hydroxyl-chroman-4-yl)phenyl)-2,7-diazaspiro[3.5]nonane-2-yl)piperidin-1-yl)-1-oxoisoinodolin-2-yl)pyridine-2,6-dione] |
